From ChEMBL document CHEMBL4002554, “Terpenoids from Melampodium perfoliatum” (2016)

What follows are compounds tested on Mus musculus (assay: Anti-inflammatory activity in TPA-induced CD1 mouse ear acute inflammation model assessed as reduction in TPA-induced ear edema at 1 mg/ear administered topically 10 mins prior to TPA challenge measured after 4 hrs relative to control).
Format: functional
With `C=C1C(=O)O[C@@H]2/C=C(\C)[C@@H]3O[C@@H]3/C=C(/C(=O)OC)[C@H](OC(=O)[C@]3(C)O[C@@H]3C)[C@@H](OC(=O)[C@]3(C)O[C@@H]3C)[C@@H]12` the “inhibition (INH)” value was under 50%. For `CC1(C)[C@H]2CC[C@@]34C[C@@H](CC[C@H]3[C@]2(C)CC[C@@H]1O)[C@@](O)(CO)C4`, the “inhibition (INH)” value was under 50%. With `C=C1C(=O)O[C@H]2[C@H]1[C@H](OC(=O)[C@]1(C)O[C@@H]1C)[C@@H](OC(=O)[C@]1(C)O[C@@H]1C)/C(C(=O)OC)=C\CC[C@@]1(C)O[C@H]21` the “inhibition (INH)” value was under 50%.

These compounds were tested on Mus musculus (assay: Anti-inflammatory activity in TPA-induced CD1 mouse ear acute inflammation model assessed as reduction in TPA-induced ear edema administered topically 10 mins prior to TPA challenge measured after 4 hrs).
Format: functional
For `C=C1C(=O)O[C@@H]2/C=C(\C)[C@@H]3O[C@@H]3/C=C(/C(=O)OC)[C@H](O)[C@@H](OC(=O)[C@]3(C)O[C@@H]3C)[C@@H]12` [MELAMPODIN A], the ID50 was 1.14 µmol and the inhibition was “Dose-dependent effect”. For `C=C1C(=O)O[C@@H]2/C=C(\C)CC/C=C(/C(=O)OC)[C@H](O)[C@@H](OC(=O)[C@]3(C)O[C@@H]3C)[C@@H]12`, the ID50 was 1.15 µmol and the inhibition was “Dose-dependent effect”. With `CC(C)=CC(=O)C[C@@]12O[C@@H]1CC[C@]1(C)O[C@](C)(C(O)CO)CC[C@@H]1OC2=O` (some centres not stated) the ID50 was 1.49 µmol and the inhibition was “Dose-dependent effect”. In the case of `C=C1C(=O)O[C@@H]2/C=C(\C)CC/C=C(/C(=O)OC)[C@H](O)[C@@H](OC(=O)/C(C)=C\C)[C@@H]12`, the ID50 is reported as 0.56 µmol and the inhibition is reported as “Dose-dependent effect”. In the case of `COc1ccc2c(c1)c(CC(=O)O)c(C)n2C(=O)c1ccc(Cl)cc1` [INDOMETHACIN], the ID50 is reported as 0.24 µmol.
